Measurements from patent US10669269B2, “Substituted N-(1H-indazol-4-yl)imidazo[1,2-a]pyridine-3-carboxamide compounds as type III receptor tyrosine kinase inhibitors” (ARRAY BIOPHARMA INC., priority 2010, dated 2020).
Structures can show the parent of a compound that is named as a salt.

What was measured:
[1] = target: T1, PDGFR beta (Homo sapiens, UniProt P09619); assay: Phospho PDGFR LICOR Cell Assay (Example B); format: cell-based; conditions: averaged IC50; PDGFR beta phosphorylation in HS27 human fibroblast cell line, PDGF-BB stimulation 10 minutes, normalized to total ERK
T1 construct: endogenous in cells; host or cells: HS27 human fibroblast cell line
T1 sequence (P09619 33-1106): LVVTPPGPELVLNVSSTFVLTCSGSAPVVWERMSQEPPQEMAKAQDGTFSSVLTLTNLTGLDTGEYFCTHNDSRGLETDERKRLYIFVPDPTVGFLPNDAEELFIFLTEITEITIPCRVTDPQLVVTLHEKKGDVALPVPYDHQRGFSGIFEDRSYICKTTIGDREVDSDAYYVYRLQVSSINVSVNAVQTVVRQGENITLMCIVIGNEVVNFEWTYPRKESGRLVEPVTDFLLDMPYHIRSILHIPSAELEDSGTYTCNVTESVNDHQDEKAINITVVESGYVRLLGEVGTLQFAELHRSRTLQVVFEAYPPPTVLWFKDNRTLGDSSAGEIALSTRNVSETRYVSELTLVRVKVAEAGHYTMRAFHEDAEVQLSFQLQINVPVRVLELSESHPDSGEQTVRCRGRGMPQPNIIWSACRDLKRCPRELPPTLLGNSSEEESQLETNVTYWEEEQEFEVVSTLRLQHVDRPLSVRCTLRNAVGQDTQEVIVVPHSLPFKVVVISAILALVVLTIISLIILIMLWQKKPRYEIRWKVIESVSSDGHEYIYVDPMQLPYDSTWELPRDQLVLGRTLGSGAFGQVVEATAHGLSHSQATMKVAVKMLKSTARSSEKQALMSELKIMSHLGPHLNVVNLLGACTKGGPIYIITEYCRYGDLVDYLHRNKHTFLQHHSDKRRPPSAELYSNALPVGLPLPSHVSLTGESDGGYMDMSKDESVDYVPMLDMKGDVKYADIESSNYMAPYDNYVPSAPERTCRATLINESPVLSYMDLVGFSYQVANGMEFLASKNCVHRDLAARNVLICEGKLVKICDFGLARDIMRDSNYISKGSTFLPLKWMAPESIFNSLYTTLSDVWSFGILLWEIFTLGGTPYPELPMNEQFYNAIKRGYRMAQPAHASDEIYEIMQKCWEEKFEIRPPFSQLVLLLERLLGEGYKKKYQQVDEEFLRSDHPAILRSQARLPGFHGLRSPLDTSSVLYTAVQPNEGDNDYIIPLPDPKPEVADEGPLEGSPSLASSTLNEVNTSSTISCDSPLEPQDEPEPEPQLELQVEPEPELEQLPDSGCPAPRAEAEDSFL
Outline: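 HS27 human fibroblasts pretreated 1 h with compound, then stimulated 10 min with PDGF-BB. Fixed, permeabilized cells immunostained for phospho-PDGFRβ and total ERK and read by two-colour infrared fluorescence, with phospho signal normalized to ERK. IC50 = 50% of control from 4-parameter logistic fit.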

[2] = target: T1, PDGFR beta; assay: Phospho PDGFR Cell Assay, sandwich ELISA (Example A); format: cell-based; conditions: averaged IC50, PDGFR beta phosphorylation in HS27 human fibroblast cell line, PDGF-BB stimulation 5 minutes
Outline: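 HS27 human fibroblasts were pretreated with compound for 1 h, stimulated with PDGF-BB for 5 min, then lysed. Phospho-PDGFR beta was measured by sandwich ELISA, and IC50 was taken as the concentration giving 50 percent of control from a 4-parameter logistic fit.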

[3] = target: T2, cFMS (Homo sapiens, UniProt P07333); assay: cFMS Cell-Based Assay (Example C); conditions: averaged IC50; phospho-cFMS in THP-1 cells stimulated with 250 ng/mL recombinant human MCSF; read-out: cFMS Cell ELISA IC50
T2 construct: THP-1 cells (human acute monocytic leukemia cell line) were serum-starved for 4 hours; endogenous in cells; host or cells: THP-1 cells (human acute monocytic leukemia cell line)
T2 sequence (P07333 20-972): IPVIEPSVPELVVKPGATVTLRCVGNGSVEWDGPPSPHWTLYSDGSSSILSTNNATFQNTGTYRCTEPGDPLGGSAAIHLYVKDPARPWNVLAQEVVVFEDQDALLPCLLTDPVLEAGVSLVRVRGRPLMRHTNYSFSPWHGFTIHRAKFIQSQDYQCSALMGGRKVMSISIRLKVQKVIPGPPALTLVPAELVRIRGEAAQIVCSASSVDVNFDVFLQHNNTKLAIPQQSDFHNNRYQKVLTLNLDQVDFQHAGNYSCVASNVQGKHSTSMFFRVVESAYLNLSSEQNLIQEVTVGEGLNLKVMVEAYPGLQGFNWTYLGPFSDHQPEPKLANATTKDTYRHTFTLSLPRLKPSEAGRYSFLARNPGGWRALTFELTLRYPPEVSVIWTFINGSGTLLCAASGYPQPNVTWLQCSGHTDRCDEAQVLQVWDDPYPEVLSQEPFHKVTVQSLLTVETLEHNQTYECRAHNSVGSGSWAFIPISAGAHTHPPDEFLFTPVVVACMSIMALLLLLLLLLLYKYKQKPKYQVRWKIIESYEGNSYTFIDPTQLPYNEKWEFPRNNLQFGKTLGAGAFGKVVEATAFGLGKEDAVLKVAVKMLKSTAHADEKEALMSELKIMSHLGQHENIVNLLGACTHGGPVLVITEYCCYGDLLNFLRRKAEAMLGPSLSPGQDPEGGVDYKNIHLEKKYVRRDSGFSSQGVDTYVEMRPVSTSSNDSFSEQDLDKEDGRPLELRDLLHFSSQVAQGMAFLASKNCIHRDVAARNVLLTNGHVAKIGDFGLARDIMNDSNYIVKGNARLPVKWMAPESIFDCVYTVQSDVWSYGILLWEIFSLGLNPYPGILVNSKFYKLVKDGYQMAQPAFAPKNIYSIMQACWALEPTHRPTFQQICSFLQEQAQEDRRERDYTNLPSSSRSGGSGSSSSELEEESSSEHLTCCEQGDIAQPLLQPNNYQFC
Outline: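 THP-1 cells serum-starved 4 h, then treated 1 h with compound (9-point, 3-fold series, top dose typically 5,000 nM) at 37 °C, then stimulated 1 min with 250 ng/mL recombinant human MCSF. Phospho-cFMS in lysates quantified by capture ELISA against a purified phospho-protein standard curve. IC50 at 50 percent of control, 4-parameter logistic fit.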

[4] = target: T3, c-KIT (Homo sapiens, UniProt P10721); assay: c-KIT Cell-Based Assay (Example D); conditions: averaged IC50; phospho-c-KIT in M-07e cells stimulated with 150 ng/ml recombinant human SCF; read-out: cKIT Cell ELISA IC50
T3 construct: M-07e cells (human acute megakaryoblastic leukemia cell line) were serum-starved for 4 hours; endogenous in cells; host or cells: M-07e cells (human acute megakaryoblastic leukemia cell line)
T3 sequence (P10721 26-976): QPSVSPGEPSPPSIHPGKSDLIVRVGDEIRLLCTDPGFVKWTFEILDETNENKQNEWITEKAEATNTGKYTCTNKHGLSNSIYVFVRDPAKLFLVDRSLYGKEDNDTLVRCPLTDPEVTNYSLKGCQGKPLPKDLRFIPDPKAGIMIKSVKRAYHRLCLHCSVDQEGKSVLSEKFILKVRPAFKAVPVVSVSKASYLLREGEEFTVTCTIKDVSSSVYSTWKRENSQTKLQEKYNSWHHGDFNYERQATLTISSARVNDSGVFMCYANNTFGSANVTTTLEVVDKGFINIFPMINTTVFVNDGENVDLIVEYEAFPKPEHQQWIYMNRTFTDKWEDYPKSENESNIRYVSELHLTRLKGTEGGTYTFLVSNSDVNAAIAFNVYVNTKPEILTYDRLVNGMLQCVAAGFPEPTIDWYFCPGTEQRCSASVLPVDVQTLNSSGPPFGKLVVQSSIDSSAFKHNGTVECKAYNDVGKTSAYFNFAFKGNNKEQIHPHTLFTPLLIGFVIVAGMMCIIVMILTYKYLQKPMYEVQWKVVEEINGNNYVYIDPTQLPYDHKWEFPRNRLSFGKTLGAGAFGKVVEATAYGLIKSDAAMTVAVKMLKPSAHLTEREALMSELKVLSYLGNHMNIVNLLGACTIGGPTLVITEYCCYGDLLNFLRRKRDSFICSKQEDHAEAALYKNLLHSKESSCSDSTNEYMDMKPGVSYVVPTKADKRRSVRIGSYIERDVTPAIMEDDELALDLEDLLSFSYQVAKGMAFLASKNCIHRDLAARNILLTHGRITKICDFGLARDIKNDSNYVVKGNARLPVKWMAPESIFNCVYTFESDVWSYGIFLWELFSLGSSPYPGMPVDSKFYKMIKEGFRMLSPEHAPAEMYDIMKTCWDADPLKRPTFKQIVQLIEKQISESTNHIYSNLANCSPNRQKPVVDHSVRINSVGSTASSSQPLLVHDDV
Outline: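 M-07e cells serum-starved 4 h, treated 1 h with compound (9-point, 3-fold dilutions, top dose typically 5,000 nM) at 37° C, then stimulated 4 min with 150 ng/ml SCF. Phospho-c-KIT in lysates quantified by ELISA against a standard curve; IC50 from 4-parameter logistic fit as 50% of control.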

## Cc1nn(Cc2cccc(C(F)(F)F)n2)c2cccc(NC(=O)c3cnc4cc(OCCN5CCN(C(C)C)CC5)ccn34)c12 [Example 45, 7-(2-(4-isopropylpiperazin-1-yl)ethoxy)-N-(3-methyl-1-((6-(trifluoromethyl)pyridin-2-yl)methyl)-1H-indazol-4-yl)imidazo[1,2-a]pyridine-3-carboxamide]
[1]
  IC50: 113 nM
[2]
  IC50: 347 nM
[3]
  IC50: 13.4 nM
[4]
  IC50: 166 nM

## CCN1CCN(CCOc2ccn3c(C(=O)Nc4cccc5c4c(C)nn5Cc4cccc(C5CC5)n4)cnc3c2)CC1 [Example 17, N-(1-((6-cyclopropylpyridin-2-yl)methyl)-3-methyl-1H-indazol-4-yl)-7-(2-(4-ethylpiperazin-1-yl)ethoxy)imidazo[1,2-a]pyridine-3-carboxamide]
[1]
  IC50: 313 nM
[2]
  IC50: 85 nM
[3]
  IC50: 11 nM
[4]
  IC50: 54.2 nM

## Cc1nn(Cc2cccc(C(C)C)n2)c2cccc(NC(=O)c3cnc4cc(OCCN5CCN(C)CC5)ccn34)c12 [Example 66, N-(1-((6-isopropylpyridin-2-yl)methyl)-3-methyl-1H-indazol-4-yl)-7-(2-(4-methylpiperazin-1-yl)ethoxy)imidazo[1,2-a]pyridine-3-carboxamide]
[1]
  IC50: 4.8 nM
[2]
  IC50: 18.3 nM
[3]
  IC50: 10.2 nM
[4]
  IC50: 30.7 nM

## Cc1nn(Cc2cccc(C(C)C)n2)c2cccc(NC(=O)c3cnc4cc(OCCN5CC6(CN(C)C6)C5)ccn34)c12 [Example 4, N-(1-((6-isopropylpyridin-2-yl)methyl)-3-methyl-1H-indazol-4-yl)-7-(2-(6-methyl-2,6-diazaspiro[3.3]heptan-2-yl)ethoxy)imidazo[1,2-a]pyridine-3-carboxamide]
[1]
  IC50: 10.7 nM
[2]
  IC50: 27.9 nM
[3]
  IC50: 29.4 nM
[4]
  IC50: 81.6 nM

## Cc1nn(Cc2cccc(C3CC3)n2)c2cccc(NC(=O)c3cnc4cc(OCCN5CCN(C)C(C)(C)C5)ccn34)c12 [Example 19, N-(1-((6-cyclopropylpyridin-2-yl)methyl)-3-methyl-1H-indazol-4-yl)-7-(2-(3,3,4-trimethylpiperazin-1-yl)ethoxy)imidazo[1,2-a]pyridine-3-carboxamide]
[1]
  IC50: 247 nM
[2]
  IC50: 43.2 nM
[3]
  IC50: 9.4 nM
[4]
  IC50: 39.1 nM

## Cc1nn(Cc2cccc(C3CC3)n2)c2cccc(NC(=O)c3cnc4cc(OCCN5CCOCC5)ccn34)c12 [Example 18, N-(1-((6-cyclopropylpyridin-2-yl)methyl)-3-methyl-1H-indazol-4-yl)-7-(2-morpholinoethoxy)imidazo[1,2-a]pyridine-3-carboxamide]
[1]
  IC50: 674 nM
[2]
  IC50: 59.9 nM
[3]
  IC50: 10.2 nM
[4]
  IC50: 81.8 nM

## O=C(Nc1cccc2c1cnn2Cc1ccccc1)c1cnc2cc(OCC(O)CO)ccn12 (stereo not drawn) [Example 91, N-(1-benzyl-1H-indazol-4-yl)-7-(2,3-dihydroxypropoxy)imidazo[1,2-a]pyridine-3-carboxamide]
[1]
  IC50: 10.9 nM
[2]
  IC50: 22.2 nM
[3]
  IC50: 4.4 nM
[4]
  IC50: 30.1 nM

## Cc1nn(Cc2cccc(C3CC3)n2)c2cccc(NC(=O)c3cnc4cc(OCCN5CCN(C)[C@@H](C)C5)ccn34)c12 [Example 26, (S)—N-(1-((6-cyclopropylpyridin-2-yl)methyl)-3-methyl-1H-indazol-4-yl)-7-(2-(3,4-dimethylpiperazin-1-yl)ethoxy)imidazo[1,2-a]pyridine-3-carboxamide dihydrochloride]
[1]
  IC50: 63.2 nM
[2]
  IC50: 29.6 nM
[3]
  IC50: 13.7 nM
[4]
  IC50: 27.9 nM

## Cc1nn(Cc2csc(C(C)C)n2)c2cccc(NC(=O)c3cnc4cc(OCCN5CC6(COC6)C5)ccn34)c12 [Example 14, 7-(2-(2-oxa-6-azaspiro[3.3]heptan-6-yl)ethoxy)-N-(1-((2-isopropylthiazol-4-yl)methyl)-3-methyl-1H-indazol-4-yl)imidazo[1,2-a]pyridine-3-carboxamide]
[1]
  IC50: 36.6 nM
[2]
  IC50: 37.7 nM
[3]
  IC50: 20.6 nM
[4]
  IC50: 96.4 nM
